Patent US6989389B2, “Aryl ether substituted imidazoquinolines” (3M Innovative Properties Co., priority 2000, dated 2006)
Where two headings read alike, the source gives them in different places.

What was measured:
[1] = system: Peripheral blood mononuclear cells (PBMC); assay: Cytokine Induction in Human Cells (in vitro human blood cell system, IFN and TNF secreted into culture media); type: cell-based; set-up: key to Lowest Effective Concentration (μM) Tumor Necrosis Factor / Lowest Effective Concentration (μM) Interferon: *: no induction was seen at any of the tested concentrations; details: 18 to 24 hours, tested 30-0.014 μM
Outline: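 Human donor PBMC (2×10^6 cells/mL, RPMI complete) incubated 18–24 h at 37 °C, 5% CO2 with compound, 3-fold dilutions 30–0.014 μM, ≤1% DMSO. IFN-α measured by ELISA, TNF-α by ELISA or IGEN immunoassay in supernatants (pg/mL). Value is lowest concentration inducing each cytokine.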

[2] = Homo sapiens, PBMC, lowest concentration found to induce interferon (α), ELISA, read-out: Lowest Effective Concentration (μM) Interferon
[3] = Homo sapiens, PBMC, lowest concentration found to induce tumor necrosis factor (α), ELISA or IGEN assay, read-out: Lowest Effective Concentration (μM) Tumor Necrosis Factor
[4] = lowest concentration found to induce tumor necrosis factor (α), ELISA or IGEN assay
[5] = lowest concentration found to induce interferon (α), ELISA

melting point [°C]	SMILES	minimal effective concentration [1, 2] [µM]	minimal effective concentration [1, 3] [µM]	minimal effective concentration ([1]; lowest concentration found to induce interferon (α), ELISA, read-out: Lowest Effective Concentration (μM) Interferon) [µM]	Lowest Effective Concentration (μM) Tumor Necrosis Factor [1, 4]	Lowest Effective Concentration (μM) Interferon [1, 5]
103.8 to 104.5	CCCCCCCCc1nc2c(N)nc3ccccc3c2n1CCOCCCc1ccccc1 [Example 117, 2-Octyl-1-[2-(3-phenylpropoxy)ethyl]-1H-imidazo[4,5-c]quinolin-4-amine]	–	–	–	*	*
129.7 to 130.7	Cc1nc2c(N)nc3ccccc3c2n1CCOCCCc1ccccc1 [Example 119, 2-Methyl-1-[2-(3-phenylpropoxy)ethyl]-1H-imidazo[4,5-c]quinolin-4-amine]	0.01	0.12	–	–	–
134.5 to 135.5	COCCc1nc2c(N)nc3ccccc3c2n1CCOCC#Cc1ccccc1 [Example 120, 2-(Methoxyethyl)-1-{2-[(3-phenylprop-2-ynyl)oxy]ethyl}-1H-imidazo[4,5-c]quinolin-4-amine]	0.01	0.01	–	–	–
103.8 to 104.5	COCCc1nc2c(N)nc3ccccc3c2n1CCOCCCc1ccccc1 [Example 121, 2-(2-Methoxyethyl)-1-[2-(3-phenylpropoxy)ethyl]-1H-imidazo[4,5-c]quinolin-4-amine]	0.01	0.04	–	–	–
110.8 to 111.7	CCOCc1nc2c(N)nc3ccccc3c2n1CCOCC#Cc1ccccc1 [Example 122, 2-(Ethoxymethyl)-1-{2-[(3-phenylprop-2-ynyl)oxy]ethyl}-1H-imidazo[4,5-c]quinolin-4-amine]	0.01	0.12	–	–	–
133 to 140	CCCCc1nc2c(N)nc3ccccc3c2n1CCOCC#Cc1ccccc1 [Example 123, 2-Butyl-1-{2-[(3-phenylprop-2-ynyl)oxy]ethyl}-1H-imidazo[4,5-c]quinolin-4-amine]	0.12	10	–	–	–
80.8 to 81.3	CCCCc1nc2c(N)nc3ccccc3c2n1CCOCCCc1ccccc1 [Example 124, 2-Butyl-1-[2-(3-phenylpropoxy)ethyl]-1H-imidazo[4,5-c]quinolin-4-amine]	1.11	10	–	–	–
144.5 to 146	CCOCc1nc2c(N)nc3ccccc3c2n1CCOCc1ccccc1 [Example 125, 1-[2-(Benzyloxy)ethyl]-2-(ethoxymethyl)-1H-imidazo[4,5-c]quinolin-4-amine]	0.01	0.37	–	–	–
133 to 135	CCCCc1nc2c(N)nc3ccccc3c2n1CCOCc1ccccc1 [Example 126, 1-[2-(Benzyloxy)ethyl]-2-butyl-1H-imidazo[4,5-c]quinolin-4-amine]	0.04	0.04	–	–	–
159 to 160	Cc1nc2c(N)nc3ccccc3c2n1CCOCc1ccccc1 [Example 127, 1-[2-(Benzyloxy)ethyl]-2-methyl-1H-imidazo[4,5-c]quinolin-4-amine]	0.01	0.12	–	–	–
110 to 111	CCCCCCCCc1nc2c(N)nc3ccccc3c2n1CCOCc1ccccc1 [Example 128, 1-[2-(Benzyloxy)ethyl]-2-octyl-1H-imidazo[4,5-c]quinolin-4-amine]	–	–	–	*	*
171 to 174	COCCc1nc2c(N)nc3ccccc3c2n1CCOc1ccccc1 [Example 129, 2-(2-Methoxyethyl)-1-(2-phenoxyethyl)-1H-imidazo[4,5-c]quinolin-4-amine]	0.01	0.04	–	–	–
176.6 to 177.8	CC(C)Cc1nc2c(N)nc3ccccc3c2n1CCOc1ccccc1 [Example 130, 2-Isobutyl-1-(2-phenoxyethyl)-1H-imidazo[4,5-c]quinolin-4-amine]	3.33	3.33	–	–	–
229 to 231	CC(C)c1nc2c(N)nc3ccccc3c2n1CCOc1ccccc1 [Example 131, 2-Isopropyl-1-(2-phenoxyethyl)-1H-imidazo[4,5-c]quinolin-4-amine]	–	10	–	–	*
168.3 to 169.5	CCCCc1nc2c(N)nc3ccccc3c2n1CCOc1ccccc1 [Example 132, 2-Butyl-1-(2-phenoxyethyl)-1H-imidazo[4,5-c]quinolin-4-amine]	0.01	3.33	–	–	–

Further lines, the compound ahead of its results:

SMILES	melting point [°C]	minimal effective concentration [1, 2] [µM]	minimal effective concentration [1, 3] [µM]	minimal effective concentration ([1]; lowest concentration found to induce interferon (α), ELISA, read-out: Lowest Effective Concentration (μM) Interferon) [µM]	Lowest Effective Concentration (μM) Tumor Necrosis Factor [1, 4]	Lowest Effective Concentration (μM) Interferon [1, 5]
Nc1nc2ccccc2c2c1ncn2CCOCC#Cc1ccccc1 [Example 3, 1-{2-[(3-Phenyl-2-propynyl)oxy]ethyl}-1H-imidazo[4,5-c]quinolin-4-amine]	196 to 197	0.12	3.33	–	–	–
Cl.Nc1nc2ccccc2c2c1ncn2CCOCC#Cc1ccccc1 [Example 4, 1-{2-[(3-Phenyl-2-propynyl)oxy]ethyl}-1H-imidazo[4,5-c]quinolin-4-amine Hydrochloride]	231 to 236	–	–	0.12	*	–
COc1ccc(CCCOCCn2cnc3c(N)nc4ccccc4c32)cc1 [Example 5, 1-{2-[3-(4-Methoxyphenyl)propoxy]ethyl}-1H-imidazo[4,5-c]quinolin-4-amine]	116 to 118	0.12	1.11	–	–	–
CNS(=O)(=O)c1ccc(C)c(CCCOCCn2cnc3c(N)nc4ccccc4c32)c1 [Example 6, N^1,4-Dimethyl-3-{3-[2-(4-amino-1H-imidazo[4,5-c]quinolin-1-yl)ethoxy]propyl}-1-benzensulfonamide]	207 to 209	0.12	–	–	*	–
Cc1cccc(C)c1C#CCOCCn1cnc2c(N)nc3ccccc3c21 [Example 8, 1-(2-{[3-(2,6-Dimethylphenyl)-2-propynyl]oxy}ethyl)-1H-imidazo[4,5-c]quinolin-4-amine]	200 to 201	1.11	10	–	–	–
Nc1nc2ccccc2c2c1ncn2CCOCC#Cc1ccc(Oc2ccccc2)cc1 [Example 9, 1-(2-{[3-(4-Phenoxyphenyl)-2-propynyl]oxy}ethyl)-1H-imidazo[4,5-c]quinolin-4-amine]	146 to 148	–	–	–	*	*
Nc1nc2ccccc2c2c1ncn2CCOCC#Cc1ccccc1C(F)(F)F [Example 10, 1-[2-({3-[2-(Trifluoromethyl)phenyl]-2-propynyl}oxy)ethyl]-1H-imidazo[4,5-c]quinolin-4-amine]	154 to 155	1.11	10	–	–	–
CCC(COCc1cccc(Cl)c1)n1cnc2c(N)nc3ccccc3c21 (stereo not drawn) [Example 17, 1-(1-{[(3-Chlorobenzyl)oxy]methyl}propyl)-1H-imidazo[4,5-c]quinolin-4-amine]	60 to 62	0.12	0.37	–	–	–
N#Cc1ccc(COCCn2cnc3c(N)nc4ccccc4c32)cc1 [Example 19, 4-{[2-(4-Amino-1H-imidazo[4,5-c]quinolin-1-yl)ethoxy]methyl}benzonitrile]	238.1 to 239.2	0.37	–	–	*	–
Cc1ccc(C#CCOCCn2cnc3c(N)nc4ccccc4c32)cc1C [Example 23, 1-(2-{[3-(3,4-Dimethylphenyl)-2-propynyl]oxy}ethyl]-1H-imidazo[4,5-c]quinolin-4-amine]	214 to 216	1.11	–	–	*	–
CC[C@H](COCC#Cc1ccccc1)n1cnc2c(N)nc3ccccc3c21 [Example 108, 1-((1R)-1-{[(3-Phenylprop-2-ynyl)oxy]methyl}propyl)-1H-imidazo[4,5-c]quinolin-4-amine]	63 to 67	0.00017	0.04	–	–	–
Nc1nc2ccccc2c2c1ncn2COCc1ccccc1 [Example 113, 1-[(Benzyloxy)methyl]-1H-imidazo[4,5-c]quinolin-4-amine]	168 to 172	1.11	–	–	*	–
Nc1nc2ccccc2c2c1ncn2CCOC/C=C/c1ccccc1 [Example 115, 1-(2-{[(2E)-3-Phenylprop-2-enyl]oxy}ethyl)-1H-imidazo[4,5-c]quinolin-4-amine]	183.7 to 184.3	0.12	1.11	–	–	–
CCCCCCCCc1nc2c(N)nc3ccccc3c2n1CCOCC#Cc1ccccc1 [Example 116, 2-Octyl-1-{2-[(3-phenylprop-2-ynyl)oxy]ethyl}-1H-imidazo[4,5-c]quinolin-4-amine]	138 to 138.7	–	–	–	*	*
